Data from ChEMBL document CHEMBL3885861, “Open TG-GATES”.

Species: Rattus norvegicus
Assay: Open TG-GATES - Regimen: Daily Repeat
Format: toxicity, organism-based, Sprague-Dawley
Parameters: regimen Daily Repeat, gender Male, age 6 weeks
Details: in vivo, po, 30 mg/kg, route gavage, dose level Low; for APTT / Bas / Eos / Fbg / Hb / Ht / Lym / MCH / MCHC / MCV / Mono / Neu / PT / Plat / RBC / Ret / WBC: tissue Blood; for KIDNEY_L / KIDNEY_R / KIDNEY_TOTAL: tissue Kidney; for LIVER: tissue Liver; for A/G / ALP / ALT / AST / BUN / CRE / Ca / Cl / DBIL / GLC / IP / K / LDH / Na / PL / RALB / TBIL / TC / TG / TP / gamma-GTP: tissue Plasma

## CCc1oc2ccccc2c1C(=O)c1cc(I)c(O)c(I)c1 [BENZIODARONE]
72 h, time 3 day
  TERMINAL_BW: 242 g
  APTT: 17.5 s
  Bas: 0%
  Eos: 1%
  Fbg: 216.8 mg/dL
  Hb: 13.8 g/dL
  Ht: 40.8%
  Lym: 79.4%
  MCH: 21.9 pg
  MCHC: 33.8%
  MCV: 64.7 fL
  Mono: 6.4%
  Neu: 13.2%
  PT: 11.7 s
  Plat: 115.3 x10_4/uL
  RBC: 629.4 x10_4/ul
  Ret: 6.5%
  WBC: 104.5 x10_2/uL
  KIDNEY_L: 1.1 g
  KIDNEY_R: 1.1 g
  KIDNEY_TOTAL: 2.2 g
  LIVER: 12.7 g
  A/G: 1.8
  ALP: 1087.2 IU/L
  ALT: 42.6 IU/L
  AST: 67.4 IU/L
  BUN: 16.8 mg/dL
  CRE: 0.5 mg/dL
  Ca: 10.7 mg/dL
  Cl: 104 meq/L
  DBIL: 0.016 mg/dL
  GLC: 191.2 mg/dL
  IP: 7.8 mg/dL
  K: 4.5 meq/L
  LDH: 103.8 IU/L
  Na: 141 meq/L
  PL: 155.4 mg/dL
  RALB: 3.6 g/dL
  TBIL: 0.3 mg/dL
  TC: 79.4 mg/dL
  TG: 74.4 mg/dL
  TP: 5.7 g/dL
  gamma-GTP: 1.6 IU/L
[…], time 7 day
  TERMINAL_BW: 274.9 g
  APTT: 17.5 s
  Bas: 0%
  Eos: 1%
  Fbg: 221.6 mg/dL
  Hb: 14.2 g/dL
  Ht: 41.8%
  Lym: 84.6%
  MCH: 21.5 pg
  MCHC: 34%
  MCV: 63.2 fL
  Mono: 4.6%
  Neu: 10%
  PT: 11.9 s
  Plat: 117.9 x10_4/uL
  RBC: 661.6 x10_4/ul
  Ret: 4.7%
  WBC: 111.9 x10_2/uL
  KIDNEY_L: 1.2 g
  KIDNEY_R: 1.2 g
  KIDNEY_TOTAL: 2.4 g
  LIVER: 14.7 g
  A/G: 1.7
  ALP: 918 IU/L
  ALT: 32.6 IU/L
  AST: 63.4 IU/L
  BUN: 18 mg/dL
  CRE: 0.6 mg/dL
  Ca: 10.8 mg/dL
  Cl: 103.4 meq/L
  DBIL: 0.018 mg/dL
  GLC: 191.8 mg/dL
  IP: 7.3 mg/dL
  K: 4.6 meq/L
  LDH: 101.6 IU/L
  Na: 139.6 meq/L
  PL: 153.2 mg/dL
  RALB: 3.7 g/dL
  TBIL: 0.3 mg/dL
  TC: 73.6 mg/dL
  TG: 110.6 mg/dL
  TP: 5.9 g/dL
  gamma-GTP: 2 IU/L
[…], time 14 day
  TERMINAL_BW: 323 g
  APTT: 18.1 s
  Bas: 0%
  Eos: 1%
  Fbg: 223.6 mg/dL
  Hb: 14.6 g/dL
  Ht: 43.4%
  Lym: 82.8%
  MCH: 20.5 pg
  MCHC: 33.6%
  MCV: 61.1 fL
  Mono: 5.2%
  Neu: 11.2%
  PT: 11.8 s
  Plat: 117.5 x10_4/uL
  RBC: 710 x10_4/ul
  Ret: 2.5%
  WBC: 109.1 x10_2/uL
  KIDNEY_L: 1.3 g
  KIDNEY_R: 1.3 g
  KIDNEY_TOTAL: 2.5 g
  LIVER: 15.7 g
  A/G: 1.7
  ALP: 914 IU/L
  ALT: 31.8 IU/L
  AST: 63.2 IU/L
  BUN: 19.6 mg/dL
  CRE: 0.5 mg/dL
  Ca: 10.3 mg/dL
  Cl: 105.2 meq/L
  DBIL: 0.008 mg/dL
  GLC: 200.4 mg/dL
  IP: 6.7 mg/dL
  K: 4.6 meq/L
  LDH: 109.6 IU/L
  Na: 141.2 meq/L
  PL: 152.8 mg/dL
  RALB: 3.9 g/dL
  TBIL: 0.3 mg/dL
  TC: 71.6 mg/dL
  TG: 159.4 mg/dL
  TP: 6.2 g/dL
  gamma-GTP: 1.8 IU/L
[…], time 28 day
  TERMINAL_BW: 399.3 g
  APTT: 18.9 s
  Bas: 0%
  Eos: 1.6%
  Fbg: 231.2 mg/dL
  Hb: 15.2 g/dL
  Ht: 45.4%
  Lym: 83.2%
  MCH: 19 pg
  MCHC: 33.6%
  MCV: 56.7 fL
  Mono: 4.8%
  Neu: 11%
  PT: 12 s
  Plat: 124.3 x10_4/uL
  RBC: 799.8 x10_4/ul
  Ret: 3%
  WBC: 128.8 x10_2/uL
  KIDNEY_L: 1.4 g
  KIDNEY_R: 1.4 g
  KIDNEY_TOTAL: 2.9 g
  LIVER: 18.7 g
  A/G: 1.8
  ALP: 629.8 IU/L
  ALT: 36.4 IU/L
  AST: 63.8 IU/L
  BUN: 20.2 mg/dL
  CRE: 0.7 mg/dL
  Ca: 10.9 mg/dL
  Cl: 104.2 meq/L
  DBIL: 0.01 mg/dL
  GLC: 194.4 mg/dL
  IP: 6.4 mg/dL
  K: 4.4 meq/L
  LDH: 121.4 IU/L
  Na: 139.6 meq/L
  PL: 156.6 mg/dL
  RALB: 4 g/dL
  TBIL: 0.3 mg/dL
  TC: 78.4 mg/dL
  TG: 123.8 mg/dL
  TP: 6.3 g/dL
  gamma-GTP: 1.8 IU/L
